Columns and labels:
[1] = system: SARS2; assay type: cell-based, SARS-CoV-2; conditions: for Percentage Inhibition Average 1 μM / Screening data (Relative infection to DMSO controls) Average 1 μM: SARS2, 1 μM; for Screening data (Relative infection to DMSO controls) Average 1 μM / Screening data (Relative infection to DMSO controls) Average 5 μM / Screening data (Relative infection to DMSO controls) Average 10 μM / Screening data (Relative infection to DMSO controls) Average 25 μM / Screening data (Relative infection to DMSO controls) Average 50 μM / Average (relative infection to DMSO over the 5 tested concentrations): 100=DMSO control; for Percentage Inhibition Average 5 μM / Screening data (Relative infection to DMSO controls) Average 5 μM: SARS2, 5 μM; for Percentage Inhibition Average 10 μM / Screening data (Relative infection to DMSO controls) Average 10 μM: SARS2, 10 μM; for Percentage Inhibition Average 25 μM / Screening data (Relative infection to DMSO controls) Average 25 μM: SARS2, 25 μM; for Percentage Inhibition Average 50 μM / Screening data (Relative infection to DMSO controls) Average 50 μM: SARS2, 50 μM; for Average (relative infection to DMSO over the 5 tested concentrations): SARS2, average over 1 to 50 uM
[2] = system: cells (nuclei count); conditions: for Relative cell count to DMSO controls, Average 1 μM / Relative cell count to DMSO controls, Average 5 μM / Relative cell count to DMSO controls, Average 10 μM / Relative cell count to DMSO controls, Average 25 μM / Relative cell count to DMSO controls, Average 50 μM: toxicity data, 100=DMSO control; for Relative cell count to DMSO controls, Average (for correlation analysis): average value over the 5 tested concentrations (1 to 50 uM)

Row | Structure (SMILES) | Percentage Inhibition Average 1 μM [1] [%] | Screening data (Relative infection to DMSO controls) Average 1 μM [1] | Percentage Inhibition Average 5 μM [1] [%] | Screening data (Relative infection to DMSO controls) Average 5 μM [1] | Percentage Inhibition Average 10 μM [1] [%] | Screening data (Relative infection to DMSO controls) Average 10 μM [1] | Percentage Inhibition Average 25 μM [1] [%] | Screening data (Relative infection to DMSO controls) Average 25 μM [1] | Percentage Inhibition Average 50 μM [1] [%] | Screening data (Relative infection to DMSO controls) Average 50 μM [1] | Average (relative infection to DMSO over the 5 tested concentrations) [1] | Relative cell count to DMSO controls, Average 1 μM [2] | Relative cell count to DMSO controls, Average 5 μM [2] | Relative cell count to DMSO controls, Average 10 μM [2] | Relative cell count to DMSO controls, Average 25 μM [2] | Relative cell count to DMSO controls, Average 50 μM [2] | Relative cell count to DMSO controls, Average (for correlation analysis) [2]
1 | COc1ccc(-c2[nH]ncc2C(=O)NCC2CCCCC2)cc1OC [SILCS52] | 7.72 | 92.28 | −17.76 | 117.76 | −4.43 | 104.43 | −20.98 | 120.98 | −22.98 | 122.98 | 111.69 | 103.3 | 97.63 | 97.92 | 94.91 | 81.04 | 94.96
2 | CC1=C(C(=O)NCC2CCCCC2)C(c2cc(C)c(Br)s2)NC(=O)N1 (stereo not shown) [SILCS68] | 32.72 | 67.28 | 28.63 | 71.37 | 16.60 | 83.40 | −10.69 | 110.69 | 20.80 | 79.20 | 82.39 | 117.26 | 114.63 | 110.48 | 100.14 | 91.82 | 106.87
